Assay results from article PMC4976923, “Potent Allosteric Dengue Virus NS5 Polymerase Inhibitors: Mechanism of Action and Resistance Profiling” (PLoS Pathogens, 2016).
pEC50, pIC50: −log10 of the molar value.

Columns and labels:
[1] = system: HuH-7; test: in vitro; type: cell-based; settings: HuH-7 (DENV2 replicon cells); 48 hr; ATP levels
Description: A549, BHK-21 and Huh7 cells bearing stable DENV2 sub-genomic replicon or transiently electroporated DENV2-NGC replicon or infectious virus cDNAs were seeded into 384-well microplate (3,000 cells per well). After over-night incubation at 37°C with 5% CO2, the cells were treated with 2-fold serially diluted compounds, starting from 20 or 50 μM. At 48 hr of post-incubation, renilla luciferase activities were measured with the ViviRen live-cell substrate (Promega, USA) according to the manufacturer’s protocol. CellTiter-Glo reagent (Promega, USA) was then added to determine cytotoxic effects of compounds. For the HCV replicon assay, Huh-7.5 cells harboring the HCV replicon were seeded into a 96-well microplate (20,000 cells per well). At 48 hr after compound treatment, cells were assayed for firefly luciferase activity by using a Bright-Glo luciferase assay (Promega, USA). NITD-008, a nucleoside inhibitor of DENV and HCV was added as a control.

[2] = biological target: T1, DENV3 FL NS5 (Dengue virus type 3, UniProt Q6YMS4); settings: read-out: DENV FL NS5 de novo initiation FAPA, IC50, DENV3; cited from earlier work
T1 construct: 100 nM DENV FL NS5 protein was added; made in house
T1 sequence (Q6YMS4 2491-3390): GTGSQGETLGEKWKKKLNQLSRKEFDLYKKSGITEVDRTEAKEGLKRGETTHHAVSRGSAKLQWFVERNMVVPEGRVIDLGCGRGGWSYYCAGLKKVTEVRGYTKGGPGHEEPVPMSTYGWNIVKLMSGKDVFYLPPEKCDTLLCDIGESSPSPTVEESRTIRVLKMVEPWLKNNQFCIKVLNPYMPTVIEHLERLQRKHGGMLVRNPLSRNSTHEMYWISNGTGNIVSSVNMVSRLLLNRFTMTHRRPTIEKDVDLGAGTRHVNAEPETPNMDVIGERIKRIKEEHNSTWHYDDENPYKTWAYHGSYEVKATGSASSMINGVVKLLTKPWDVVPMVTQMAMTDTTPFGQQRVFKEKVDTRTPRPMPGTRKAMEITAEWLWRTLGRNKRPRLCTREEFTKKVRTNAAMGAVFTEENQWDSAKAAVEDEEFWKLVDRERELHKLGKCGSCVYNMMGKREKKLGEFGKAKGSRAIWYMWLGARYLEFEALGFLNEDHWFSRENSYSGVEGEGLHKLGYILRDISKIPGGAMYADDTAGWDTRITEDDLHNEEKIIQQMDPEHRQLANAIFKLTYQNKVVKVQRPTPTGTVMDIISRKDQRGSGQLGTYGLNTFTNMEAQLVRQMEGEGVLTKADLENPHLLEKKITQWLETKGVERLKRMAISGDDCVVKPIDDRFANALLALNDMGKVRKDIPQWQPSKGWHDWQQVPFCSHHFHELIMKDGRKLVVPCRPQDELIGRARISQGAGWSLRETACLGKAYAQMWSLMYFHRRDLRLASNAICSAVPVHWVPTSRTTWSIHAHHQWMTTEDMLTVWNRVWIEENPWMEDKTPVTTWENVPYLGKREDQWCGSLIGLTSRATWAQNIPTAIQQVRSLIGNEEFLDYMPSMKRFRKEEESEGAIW

[3] = system: DENV1, strain MY97-10245; test: DENV1 infected A549 cells, high content imaging (HCI); type: cell-based; settings: 48 hr
Description: (§1) 2 Co mpound testing with DENV dn I FAPA assays. Final dn I assa y reaction mixtures
(§2) 3 contained 100 nM DENV 5 ´UTR-L-3´UTR IVT RNA, 20 µ M ATP, 20 µM GTP, 20 µM
(§3) 4 UTP, 5 µM ATTO -CTP, and 100 nM of DENV FL NS5 protein in 15 µl in assa y buffer
(§4) 5 comprising 50 mM Tris/ HCl, pH 7.5, 10 mM KCl, 1 mM MgCl2, 0.3 mM MnCl2 (DENV2
(§5) 6 and 4) or 1 mM MnCl 2 (DENV1 and 3), 0.001% Triton- X-100 and 10 µ M cystein e [ 1] . To
(§6) 7 perform dose-respons e inhibition measurements, compounds from 0- 20 or - 100 µM
(§7) 8 concentr ations are two -fold seriall y diluted into 384-well black opaqu e plat es (Corning
(§8) 9 Costar), after which 100 nM DENV FL NS5 protein was added into resp ect ive wells. The
(§9) 10 plates wer e sealed, b riefl y shak en and centrif uged at 1500 rpm for 30 sec and incubated at RT
(§10) 11 for 15 min. Thereafter,RNA and ATTO -CTP, ATP, GTP and UTP were added to the wells to
(§11) 12 start the reactions. The pl ates wer e re-seal ed, shaken and centrifuged as before, followed b y
(§12) 13 incubation RT for 120 min. […]
(§13) 15 intestinal phosphatase (CIP), re- incubation at RT for 60 min and read on a Tecan Safire II
(§14) 16 microplate reader. […]
(§15) 8 DENV envelope protein ) and DRAQ5 (for nucl ear DNA) . Quantifications of DENV
(§16) 9 envelope protein were determined using the Opera high content imaging s ystem and anal ysis […]
(§17) 17 µM concentrations. At 48 hr of post-incubation, r enilla luciferas e activities were measured […]

[4] = system: clinical DENV2 isolate MY97-10340; test: DENV2 infected A549 cells, high content imaging (HCI); type: cell-based; settings: Dengue virus, 48 hr
Description: as §1, §2, §3, §4, §5, §6, §7, §8, §9, §10, §11, §12, §13, §14, §15, §16, §17

[5] = system: DENV3 strain MY05-34640; test: DENV3 infected A549 cells, high content imaging (HCI); type: cell-based; settings: 48 hr
Description: as §1, §2, §3, §4, §5, §6, §7, §8, §9, §10, §11, §12, §13, §14, §15, §16, §17

In the case of `COc1cccc(S(=O)(=O)NC(=O)c2cc(-c3ccc(C#CCO)s3)c(OC)cc2OC)c1` [Compound 27], the CC50 [1] is listed as > 50 µM and the pIC50 [2] is listed as 7.32.
Molecule `COc1cccc(S(=O)(=O)NC(=O)c2cc(-c3ccc(C#CCO)s3)c(OC)cc2C)c1` [Compound 26i] has a pEC50 [3] of 4.82, a pEC50 [4] of 4.57 and a pEC50 [5] of 4.77.
